Patent US6589976B1, “Utilizing spirocyclic phenyl keto-enols as pesticides and herbicides” (Bayer Aktiengesellschaft, priority 1997, dated 2003)

How the values were obtained:
[1] = system: larvae of the green rice leaf hoppers (Nepliotettix cincticeps); test: Nephotettix-Test (rice seedlings dipped); type: in vivo, Nephotettix cincticeps; settings: active compound concentration of 0.1%, after 6 days
Method: Solvent: 7 parts by weight dimethylformamide
(§1) Emulsifier: 1 part by weight of alkylaryl polyglycol ether
(§2) To produce a suitable preparation of active compound, 1 part by weight of active compound is mixed with the stated amount of solvent and the stated amount of emulsifier, and the concentrate is diluted with water to the desired concentration.
Rice seedlings (Oryza sativa) are treated by being dipped into the preparation of active compound of the desired concentration and populated with larvae of the green rice leaf hoppers (Nepliotettix cincticeps) while the seedlings are still moist.
After the desired period of time, the kill in % is determined. 100% means that all leaf hoppers have been killed, 0% means that none of the leaf hoppers have been killed.

[2] = system: greenhouse spider mite (Tetranychus urticae); test: Tetranychus-Test (OP-resistant/dipped Treatment); type: in vivo; settings: active compound concentration of 0.01%, after 7 days
Method: Tetranychus-Test (OP-resistant/dipped Treatment)
(§3) Solvent: 3 parts by weight of dimethylformamide
as §1, §2
Bean plants (Phaseolus vulgaris), which are heavily infested by all stages of the greenhouse spider mite (Tetranychus urticae) are dipped into a preparation of active compound of the desired concentration.
After the desired period of time, the activity in % is determined. 100% means that all spider mites have been killed, 0% means that none of the spider mites have been killed.

Lucilia cuprina-Larvae = test: Blowfly-Larvae-Test/Development-inhibitory Action; type: in vivo; settings: active compound concentration of 1000 ppm, read-out: activity (inhibition of fly emergence)
Method: Blowfly-Larvae-Test/Development-inhibitory Action
Test animals: Lucilia cuprina-Larvae
Solvent: dimethyl sulphoxide
20 mg of active compound are dissolved in 1 ml of dimethyl sulphoxide, more dilute concentrations are prepared by dilution with distilled H2O.
Approximately 20 Lucilia cuprina larvae are introduced into a test tube which contains approximately 1 cm^3 of horse meat and 0.5 ml of the preparation of active compound to be tested. After 24 and 48 hours, the efficacy of the preparation of active compound is determined. The test tubes are transferred into beakers whose bottom is covered with sand. After a further 2 days, the test tubes are removed, and the pupae are counted.
The activity of the preparation of active compound is assessed by the number of flies which have emerged after 1.5 times the development time of an untreated control. 100% means that no flies have emerged; 0% means that all the flies have emerged normally.

[3] = system: peach affids (Myzus persicae); test: Myzus-Test (cabbage leaves dipped); type: in vivo; settings: active compound concentration of 0.1%, after 6 days
Method: (§4) Solvent: 7 parts by weight of dimethylformamide
as §1, §2
Cabbage leaves (Brassica oleracea), which are heavily infested by peach affids (Myzus persicae) are treated by being dipped into the preparation of active compound of the desired concentration.
After the desired period of time, the kill in per cent is determined. 100% means that all affids have been killed; 0% means that none of the affids have been killed.

[4] = system: fruit tree red spider mite (Panonychus ulmi); test: Panonychus-Test (plum trees sprayed); type: in vivo; settings: active compound concentration of 0.02%, after 7 days
Method: as §3, §1
To produce a suitable preparation of active compound, 1 part by weight of active compound is mixed with the stated amount of solvent and the stated amount of emulsifier, and the concentrate is diluted with emulsifier-containing water to the desired concentration.
Plum trees (Prunus domestica), of a height of approximately 30 cm which are heavily infested by all development stages of the fruit tree red spider mite (Panonychus ulmi) are sprayed with a preparation of active compound of the desired concentration.
After the desired period of time, the effect in % is determined. 100% means that all spider mites have been killed, 0% means that none of the spider mites have been killed.

[5] = system: caterpillars of the owlet moth (Spodoptera frugiperda); test: Spodoptera Frugiperda-Test (cabbage leaves dipped); type: in vivo; settings: active compound concentration of 0.1%, after 7 days
Method: Spodoptera Frugiperda-Test
as §4, §1, §2
Cabbage leaves (Brassica oleracea) are treated by being dipped into the preparation of active compound of the desired concentration and populated with caterpillars of the owlet moth (Spodoptera frugiperda) while the leaves are still moist.
After the desired period of time, the kill in % is determined. 100%, means that all caterpillars have been killed; 0% means that none of the caterpillars have been killed.

[6] = system: larvae of the mustard beetle (Phaedon cochleariae); test: Phaedon-Larvae-Test (cabbage leaves dipped); type: in vivo; settings: active compound concentration of 0.1%, after 7 days
Method: as §4, §1, §2
After the desired period of time, the kill in % was determined. 100% means that all beetle larvae have been killed, 0% means that none of the beetle larvae have been killed.

CON=C1CCC2(CC1)OC(=O)C(c1c(C)cc(C)cc1C)=C2O (centres unmarked) [Example I-2-a-2]
100%: kill [1] | kill [2]

CON=C1CCC2(CC1)OC(=O)C(c1c(C)cc(C)cc1C)=C2OC(=O)C(C)(C)C (centres unmarked) [Example I-2-b-2]
100%: inhibition at 1000 ppm (Lucilia cuprina-Larvae) | kill [3] | effect (spider mites killed) [4] | kill [5] | kill [2] | kill [6]
